Values of other authors, collected in article PMC4132888 (Biopolymers, 2014).
Where no end group is shown, it is not given here. [ ]: non-standard residue; d: D form.

Legend:
MOR = details: read-out: Binding MOR; ref [33]
DOR = details: read-out: Binding DOR; ref [33]
[1] = biological target: T1, rat μ opioid receptor (MOR) (Rattus norvegicus, UniProt P33535); details: previously reported; ref [13]
[2] = biological target: T2, rat δ opioid receptor (DOR) (Rattus norvegicus, UniProt P33533); details: previously reported; ref [13]
[3] = biological target: T1, rat μ opioid receptor (MOR); details: previously reported; ref [13]; remark: listed apart in the source
[4] = biological target: T2, rat δ opioid receptor (DOR); details: previously reported; ref [13]; remark: listed apart in the source

T1 sequence (P33535 whole entry): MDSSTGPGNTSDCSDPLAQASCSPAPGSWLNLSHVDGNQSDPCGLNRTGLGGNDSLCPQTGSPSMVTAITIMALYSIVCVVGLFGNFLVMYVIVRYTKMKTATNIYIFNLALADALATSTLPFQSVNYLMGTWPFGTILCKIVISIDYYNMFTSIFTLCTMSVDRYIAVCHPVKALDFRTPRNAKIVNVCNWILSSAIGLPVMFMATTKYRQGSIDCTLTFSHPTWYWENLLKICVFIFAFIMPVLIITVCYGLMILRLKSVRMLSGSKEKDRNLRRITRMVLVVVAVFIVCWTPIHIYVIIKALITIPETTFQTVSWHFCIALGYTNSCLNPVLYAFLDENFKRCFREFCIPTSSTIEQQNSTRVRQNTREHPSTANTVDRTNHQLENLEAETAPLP
T2 sequence (P33533 whole entry): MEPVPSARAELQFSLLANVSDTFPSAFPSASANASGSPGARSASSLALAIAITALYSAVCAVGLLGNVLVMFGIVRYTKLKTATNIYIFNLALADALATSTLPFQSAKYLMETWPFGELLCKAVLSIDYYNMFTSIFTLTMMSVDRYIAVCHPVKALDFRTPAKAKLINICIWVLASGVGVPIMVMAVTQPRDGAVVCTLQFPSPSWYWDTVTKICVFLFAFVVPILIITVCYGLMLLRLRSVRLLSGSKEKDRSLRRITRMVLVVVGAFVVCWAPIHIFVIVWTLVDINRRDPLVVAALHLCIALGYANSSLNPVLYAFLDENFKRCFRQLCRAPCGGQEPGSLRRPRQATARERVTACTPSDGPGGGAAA

## Y[dT]GFLS-NH2 [DTLES]
MOR
  Ki: 1.4 ± 0.08 nM
DOR
  Ki: 4.1 ± 0.41 nM
KOR; read-out: Binding KOR, ref [33]
  Ki: 34 ± 2.2 nM

## Dmt-c(S-Et-S)[DCys-Aic-DPen]OH [KSK-103]
[1]
  Binding for MOR (in words): low nanomolar binding
[2]
  Binding for DOR (in words): low nanomolar binding
[3]
  Agonist activity at MOR (in words): moderate agonist activity
[4]
  Stimulation of DOR (in words): no stimulation

## Tyr-DThr-Gly-Phe-Leu-Ser-(O-β-D-lactose)-NH2 [MMP-2200]
KOR; ref Polt and co-workers
  KOR affinity (in words): high KOR affinity
